Read-outs that look alike come from different tables or passages of the source.
Columns and labels:
[1] = test system: Triton WR-1339-induced hyperlipidemia in rat; assay: antilipotropic effect in Triton WR-1339-induced hyperlipidemia in rat; assay type: in vivo, Wistar-strain male rats; settings: 50 mg/kg oral, vs control
Text: Wistar-strain male rats of 5-9 week age were used as test animals. One test group consisting of six (6) rats.
[a] is a determined value obtained from the control group, and
[b] is a determined value obtained from the test group).

[2] = test system: biosynthetic pathway of cholesterol; assay: inhibitory effect in biosynthetic pathway of cholesterol; assay type: biochemical; settings: 10^-4 M; rat liver microsomes and soluble fraction; 90 min, 100 µM
Method: Test for determining inhibitory effect in biosynthetic pathway of cholesterol
Each one of the test compounds was added to rat liver microsomes fraction (containing 0.2 mg of protein) and soluble fraction (containing 2 mg of protein), then the volume of the mixture was adjusted to 100 microliters by adding 0.1 M-potassium phosphate buffer solution (pH 7.4), then this mixture was incubated at 37° C. for 10 minutes.
After the incubation, the reaction was started by adding 200 microliters of a solution containing 1 mM ATP, 10 mM glucose-1-phosphate, 6 mM glutathione, 6 mM MgCl2, […], 0.25 mM […], 0.25 mM NADP, and 1 mM [1-^14 C] sodium acetate (3.0 mCi/mM).
The whole mixture was incubated at 37° C. for 90 minutes, then the reaction was terminated by adding […] of 15%-KOH (a 95% ethanol solution), next 2 mg of cholesterol was added thereto, saponified at 75° C. for 1 hour, and cholesterol was extracted with petroleum ether, the extract was concentrated to dryness. To the residue thus obtained was added with 2.5 ml of a mixture of acetone-diethyl ether (1:1) and 2.5 ml of 1%-digitonin (a 50% ethanol solution), then this solution was allowed to stand for 1 hour in cooling condition by using ice-water to precipitate cholesterol. The precipitate was washed with acetone, a mixture of acetonediethyl ether (1:1) and diethyl ether in this order, then the radioactivity of the residue was measured by using a liquid scintillation counter.
Control test was also conducted by the procedures similar to those mentioned above in the test group, except that each one of the test compounds was not used.
Inhibitory effect in biosynthetic pathway of cholesterol performed by each one of the test compounds was calculated, in terms of inhibitory ratio (%), from the formula on the basis of the radioactivity of the control group as follows: [formula] (wherein
[c] is a radioactivity of the control group, and
[d] is a radio activity of the test group).

[3] = 24 hours after Triton WR-1339 (400 mg/kg, tail vein), read-out: lowering ratio of serum triglycerides, 24 hours after Triton WR-1339
[4] = 24 hours after Triton WR-1339 (400 mg/kg, tail vein), read-out: lowering ratio of total serum cholesterol, 24 hours after Triton WR-1339
[5] = 48 hours after Triton WR-1339 (400 mg/kg, tail vein), read-out: lowering ratio of serum triglycerides, 48 hours after Triton WR-1339
[6] = 48 hours after Triton WR-1339 (400 mg/kg, tail vein), read-out: lowering ratio of total serum cholesterol, 48 hours after Triton WR-1339

| Structure (SMILES) | inhibition in vivo at 50 mg/kg [1, 3] [%] | inhibition in vivo at 50 mg/kg [1, 4] [%] | inhibition in vivo at 50 mg/kg [1, 5] [%] | inhibition in vivo at 50 mg/kg [1, 6] [%] | Inhibitory ratio of cholesterol biosynthesis [2] [%] |
| --- | --- | --- | --- | --- | --- |
| CCOP(=O)(Cc1ccc(C(=O)Nc2ccc(Cl)c(C(F)(F)F)c2)cc1)OCC [compound 9] | 11.3 | 11.7 | 68.4 | 42.3 | – |
| CCOP(=O)(Cc1ccc(C(=O)N(Cc2ccccc2)c2ccc(C(F)(F)F)cc2)cc1)OCC [compound 12] | 60.4 | 36.9 | 83.9 | – | – |
| CCOP(=O)(Cc1ccc(C(=O)Nc2ccc(C(F)(F)F)cc2)cc1)OCC [compound 13] | 73.9 | 33.7 | 95.4 | 64.4 | – |
| CCOP(=O)(Cc1ccc(C(=O)N(C)c2ccc(Cl)cc2)cc1)OCC [compound 14] | 46 | 29.3 | – | 49.4 | – |
| CCOP(=O)(Cc1ccc(C(=O)N(c2ccc(Cl)cc2)C2CCCC2)cc1)OCC [compound 15] | 23 | 9.8 | 55.8 | 22.6 | – |
| CCOP(=O)(Cc1ccc(C(=O)Nc2ccc(I)cc2)cc1)OCC [compound 16] | 94.1 | 64 | 95.3 | 75.1 | – |
| CCOP(=O)(Cc1ccc(C(=O)N(Cc2ccc(Cl)cc2)c2ccc(Cl)c(Cl)c2)cc1)OCC [compound 17] | 56.8 | 27.8 | 94.1 | 64.4 | – |
| CCOP(=O)(Cc1ccc(C(=O)Nc2ccc([N+](=O)[O-])cc2)cc1)OCC [compound 18] | 54.4 | 32.7 | 74.9 | 37.5 | – |
| CCOP(=O)(Cc1ccc(C(=O)Nc2ccc(C#N)cc2)cc1)OCC [compound 19] | 90.5 | 60.6 | 94.7 | 63.6 | – |
| CCOP(=O)(Cc1ccc(C(=O)Nc2ccc(F)cc2)cc1)OCC [compound 20] | 57.3 | 27 | 90.5 | 55.1 | – |
| CCOP(=O)(Cc1ccc(C(=O)N(Cc2ccc(Cl)cc2)c2ccc(Cl)cc2)cc1)OCC [compound 21] | 47.9 | 15.9 | 89.1 | 52.3 | – |
| CCOP(=O)(Cc1ccc(C(=O)Nc2ccc(C)cc2)cc1)OCC [compound 22] | 38.6 | 6.9 | 28.1 | 29 | 32.2 |
| CCOP(=O)(Cc1ccc(C(=O)Nc2ccc(OC)cc2)cc1)OCC [compound 23] | 25.5 | 17.3 | 27.6 | 32.5 | – |
| CCOP(=O)(Cc1cccc(C(=O)N(c2ccccc2)c2ccc(C(=O)OC)cc2)c1)OCC [compound 24] | – | – | – | – | 21.6 |
| CCOP(=O)(Cc1ccccc1C(=O)N(Cc1ccc(C#N)cc1)c1ccc(OC)cc1)OCC [compound 25] | – | – | – | – | 20.1 |
| CCOP(=O)(Cc1ccc(C(=O)Nc2ccccc2O)cc1)OCC [compound 28] | – | – | – | – | 22.1 |
| CCOP(=O)(Cc1ccc(C(=O)NCCc2ccc(OC)c(OC)c2)cc1)OCC [compound 30] | – | – | – | – | 28.9 |
| CCCCCCCCN(C(=O)c1ccc(CP(=O)(OCC)OCC)cc1)c1ccccc1 [compound 33] | – | – | – | – | 89.6 |
| CCCCCCCCC(c1ccc(C(=O)N(CCCCCCCC)c2ccccc2)cc1)P(=O)(OCC)OCC (centres unmarked) [compound 34] | – | – | – | – | 85.2 |
| CCOP(=O)(Cc1ccc(C(=O)N(c2ccccc2)C2CCCCC2)cc1)OCC [compound 35] | – | – | – | – | 39.2 |
| CCOP(=O)(Cc1ccc(C(=O)N(Cc2ccc(C)cc2)c2ccccc2)cc1)OCC [compound 37] | – | – | – | – | 82.8 |
| CCOP(=O)(Cc1ccc(C(=O)N(Cc2ccc(OC)cc2)c2ccccc2)cc1)OCC [compound 38] | – | – | – | – | 85.2 |
| CCOP(=O)(Cc1ccc(C(=O)N(Cc2ccc([N+](=O)[O-])cc2)c2ccccc2)cc1)OCC [compound 39] | – | – | – | – | 74.6 |

| Structure (SMILES) | inhibition in vivo at 50 mg/kg [1, 3] [%] | inhibition in vivo at 50 mg/kg [1, 4] [%] | inhibition in vivo at 50 mg/kg [1, 5] [%] | inhibition in vivo at 50 mg/kg [1, 6] [%] | Inhibitory ratio of cholesterol biosynthesis [2] [%] |
| --- | --- | --- | --- | --- | --- |
| CCOP(=O)(Cc1ccc(C(=O)N(Cc2cccc(C(F)(F)F)c2)c2ccccc2)cc1)OCC [compound 40] | – | – | – | – | 91.6 |
| CCOP(=O)(Cc1ccc(C(=O)N(CCc2ccccc2)c2ccccc2)cc1)OCC [compound 42] | – | – | – | – | 86.7 |
| CCOP(=O)(Cc1ccc(C(=O)N(C)Cc2ccccc2)cc1)OCC [compound 43] | – | – | – | – | 23.8 |
| CCOP(=O)(Cc1ccc(C(=O)N(Cc2ccccc2)C(C)C)cc1)OCC [compound 44] | – | – | – | – | 46.2 |
| CCOP(=O)(Cc1ccc(C(=O)N(Cc2ccccc2)C2CCCCC2)cc1)OCC [compound 45] | – | – | – | – | 76.9 |
| CCOP(=O)(Cc1ccc(C(=O)N(Cc2ccccc2)c2ccc(C)cc2)cc1)OCC [compound 46] | – | – | – | – | 59.1 |
| CCOP(=O)(Cc1ccc(C(=O)N(Cc2ccccc2)c2ccccc2F)cc1)OCC [compound 47] | – | – | – | – | 67.2 |
| CCOP(=O)(Cc1ccc(C(=O)N(Cc2ccccc2)c2ccc(OC)cc2)cc1)OCC [compound 48] | – | – | – | – | 63.7 |
| CCOP(=O)(Cc1ccc(C(=O)N(Cc2ccccc2)c2ccc(C#N)cc2)cc1)OCC [compound 49] | – | – | – | – | 75.2 |
| CCOP(=O)(OCC)C(Cc1ccccc1)c1ccc(C(=O)N(Cc2ccccc2)c2cccc(C(F)(F)F)c2)cc1 (centres unmarked) [compound 51] | – | – | – | – | 70.4 |
| CCOP(=O)(Cc1ccc(C(=O)N(Cc2ccccc2)c2ccc(OC)c(OC)c2)cc1)OCC [compound 53] | – | – | – | – | 59.0 |
| CCOP(=O)(Cc1ccc(C(=O)N(Cc2ccccc2)Cc2ccccc2)cc1)OCC [compound 54] | – | – | – | – | 69.7 |
| CCOP(=O)(Cc1ccc(C(=O)Nc2ccccc2Br)cc1)OCC [compound 55] | – | – | – | – | 57.1 |
| CCOP(=O)(Cc1ccc(C(=O)N2CCN(C)CC2)cc1)OCC [compound 56] | – | – | – | – | 23.6 |
| CCOP(=O)(Cc1ccc(C(=O)N2CCN(c3ccccc3C)CC2)cc1)OCC [compound 57] | – | – | – | – | 41.9 |
| CCOP(=O)(Cc1ccc(C(=O)N2CCN(c3ccc(OC)cc3)CC2)cc1)OCC [compound 59] | – | – | – | – | 55.1 |
| CCOP(=O)(Cc1ccc(C(=O)N2CCN(c3cccc(C(F)(F)F)c3)CC2)cc1)OCC [compound 60] | – | – | – | – | 24.9 |
| CCOP(=O)(Cc1ccc(C(=O)N2CCN(Cc3ccccc3)CC2)cc1)OCC [compound 61] | – | – | – | – | 58.3 |
| CCOP(=O)(OCC)C(C)c1ccc(C(=O)N(CCc2ccccc2)Cc2ccccc2)cc1 (centres unmarked) [compound 62] | – | – | – | – | 80.2 |
| CCOP(=O)(Cc1ccc(C(=S)N(C)c2ccccc2)cc1)OCC [compound 67] | – | – | – | – | 32.5 |
| CCOP(=O)(Cc1ccc(C(=S)N(C)Cc2ccccc2)cc1)OCC [compound 68] | – | – | – | – | 57.2 |
| CCOP(=O)(Cc1ccc(C(=S)N(Cc2ccccc2)Cc2ccccc2)cc1)OCC [compound 69] | – | – | – | – | 85.3 |
